Test results: patent publication US12441733B2, “Substituted 2,4-dioxotetrahydropyrimidines as intermediates in the synthesis of bruton's tyrosine kinase inhibitors” (Novartis AG, priority 2018, dated 2025)

Biological target: T1, BTK(C481S)-GFP (Homo sapiens, UniProt Q06187+Q96SW2, C481S)
T1 construct: CHYSEL (cis-acting hydrolase element, 2A) remnant after GFP; mCherry is split off as a separate protein (C); expressed in transfected cells; host or cells: TMD8 cells, lentiviral transduction with pLenti6-BTK(C481S)-GFP-CHYSEL-mCherry
Assay: BTK(C481S)-GFP protein abundance flow cytometry assay in TMD8 cells
Format: cell-based
Settings: TMD8 cells expressing BTK(C481S)-GFP; for DC50: GFP signal by flow cytometry; for BTK (C481S) Amax: % protein remaining at maximum degradation
Method: Compounds of the invention were tested in the following cellular assays. The terms in Table 2 are defined as follows: DC50 refers to the concentration at which 50% maximal degradation was observed; deg Amax is the extent of degradation and the value refers to the % protein remaining at the concentration at which maximum degradation is seen; ProI GI50 refers to the proliferation data and defines the concentration at which 50% growth inhibition was observed compared to the vehicle treated control at the end of the incubation time. TMD8 cells are BTK dependent and OCI-LY3 cells are BTK independent.
Btk(C481S)-GFP Protein Abundance Flow Cytometry Assay in TMD8 Cells:
Degradation of BTK(C481S) was measured in TMD8 cells expressing BTK(C481S)-GFP and mCherry from a stably integrated second generation bicistronic BTK(C481S)-GFP-CHYSEL-mCherry construct. Reduction of the […] measured by flow cytometry served as readout for BTK(C481S) degradation after degrader treatment.
Cloning of the pLenti6-BTK(C481)-GFP-CHYSEL-mCherry Sensor Vectors
The BTK(C481 S) protein abundance sensor is based on a second generation bicistronic construct, where the 2 reading frames BTK(C481S) and mCherry control are separated by a cis-acting hydrolase element (see: Lo et al., 2015 Cell Reports 13, 2634), replacing the Ires from the first generation vector described before.
The bicistronic BTK(C481S)-GFP-CHYSEL-mCherry construct is based on a pLenti6-DEST vector backbone where a GFP-CHYSEL-mCherry cassette was synthesized and inserted downstream of the DEST cassette by Gibson assembly resulting in the new gateway compatible vector pLenti6-DEST-GFP-CHYSEL-mCherry to allow Gateway cloning with pENTR221-BTK(C48S)(STOP-Leu) to obtain the final sensor construct pLenti6-BTK(C481S)-GFP-CHYSEL-mCherry. The pENTR221-BTK(C481S)(STOP-Leu) was generated by mutating wild-type BTK to BTK(C481S) with a mutagenesis reaction on pENTR221-BTK (STOP-Leu) with the following primers (BTK C481S Quikchange fw, gagtacatggccaatggctCcctcctgaactacctgagg (SEQ ID NO: 7); BTK C481S Quikchange REVC, cctcaggtagttcaggaggGagccattggccatgtactc (SEQ ID NO: 8)) using the QuikChange Lightning mutagenesis kit (Agilent Technologies #210518) performed according to the manufacturer's manual, resulting in pENTR221-BTK(C481S)(STOP-Leu).
Sequence of the synthesized construct (Xho1 sites are shown in bold, mCherry-ORF is shown in small letters):
Engineering of Stably Expressing TMD8 BTK(C481 S-GFP-CHYSEL-mCherry Sensor Cells
TMD8 BTK(C481S)-GFP-CHYSEL-mCherry sensor cells were generated by lentiviral vector transduction using the pLenti6-BTK(C4818)-GFP-CHYSEL-mCherry sensor construct described before. Lentiviral particles were produced in HEK293FT cells (Invitrogen R70007) by co-transfection of 500 ng pLenti6-BTK-GFP-Ires-RFP or pLenti6-IKZF3-GFP-Ires-RFP, 500 ng delta8.71 and 200 ng pVSVG diluted in 100 μl OptiMEM serum free medium (Invitrogen #11058-021) that was mixed after 5 min preincubation with 3 μl of Lipofectamine2000 (Invitrogen #11668-019) in 97 μl OptiMEM serum free medium. The mix was incubated for another 20 min at RT and then added to 1 ml of a freshly prepared suspension of HEK293FT cells in a well of a 6-well plate (concentration 1.2×10^6 cells/ml). 1 day after transfection, the medium was replaced with 1.5 ml of complete growth medium (DMEM high Glucose+10% FCS+1% L-Glutamine+1% NEAA+1% NaPyr.). 48 h post transfection supernatant containing viral transducing particles was collected and frozen at −80° C.
Two days before transduction with viral particles 1×10^5 HEK293A cells (Invitrogen R7057) were seeded in 2 ml growth medium in a well of a 6-well plate. Infection was performed with 90 μl of collected supernatant containing viral transducing particles in 1 ml medium including 8 μg/ml polybrene. 24 h post infection, stably transfected cells were selected with blasticidin at a concentration of 8 μg/ml.

T1 sequence (Q06187 whole entry C481S): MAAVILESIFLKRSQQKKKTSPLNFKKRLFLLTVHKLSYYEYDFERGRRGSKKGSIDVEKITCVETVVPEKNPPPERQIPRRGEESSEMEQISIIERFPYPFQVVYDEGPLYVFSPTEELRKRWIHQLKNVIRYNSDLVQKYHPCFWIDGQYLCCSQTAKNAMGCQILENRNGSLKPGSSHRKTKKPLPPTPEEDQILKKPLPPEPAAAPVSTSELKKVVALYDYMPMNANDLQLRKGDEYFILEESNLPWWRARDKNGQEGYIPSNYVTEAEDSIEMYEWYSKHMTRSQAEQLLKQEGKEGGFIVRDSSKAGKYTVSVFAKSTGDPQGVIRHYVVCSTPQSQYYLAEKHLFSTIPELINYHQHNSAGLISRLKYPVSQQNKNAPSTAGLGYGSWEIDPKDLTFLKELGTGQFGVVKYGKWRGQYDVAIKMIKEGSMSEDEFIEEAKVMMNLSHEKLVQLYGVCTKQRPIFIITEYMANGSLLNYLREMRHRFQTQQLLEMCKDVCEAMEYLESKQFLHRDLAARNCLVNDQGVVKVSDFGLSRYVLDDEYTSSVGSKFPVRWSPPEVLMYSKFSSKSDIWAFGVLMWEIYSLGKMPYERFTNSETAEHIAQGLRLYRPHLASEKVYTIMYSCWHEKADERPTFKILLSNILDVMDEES
T1 sequence (Q96SW2 whole entry): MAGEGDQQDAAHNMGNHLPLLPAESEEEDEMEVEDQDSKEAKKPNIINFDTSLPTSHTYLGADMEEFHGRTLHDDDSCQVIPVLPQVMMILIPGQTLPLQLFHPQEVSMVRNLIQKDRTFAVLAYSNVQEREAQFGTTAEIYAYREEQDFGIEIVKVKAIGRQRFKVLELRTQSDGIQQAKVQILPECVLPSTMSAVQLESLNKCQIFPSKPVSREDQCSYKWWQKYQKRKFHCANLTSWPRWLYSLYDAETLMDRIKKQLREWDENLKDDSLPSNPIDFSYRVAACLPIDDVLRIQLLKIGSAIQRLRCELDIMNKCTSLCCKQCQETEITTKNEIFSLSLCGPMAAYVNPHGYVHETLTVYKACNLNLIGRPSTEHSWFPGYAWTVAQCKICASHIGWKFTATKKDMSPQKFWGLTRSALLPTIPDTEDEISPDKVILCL
T1 sequence (Q16531 whole entry partner): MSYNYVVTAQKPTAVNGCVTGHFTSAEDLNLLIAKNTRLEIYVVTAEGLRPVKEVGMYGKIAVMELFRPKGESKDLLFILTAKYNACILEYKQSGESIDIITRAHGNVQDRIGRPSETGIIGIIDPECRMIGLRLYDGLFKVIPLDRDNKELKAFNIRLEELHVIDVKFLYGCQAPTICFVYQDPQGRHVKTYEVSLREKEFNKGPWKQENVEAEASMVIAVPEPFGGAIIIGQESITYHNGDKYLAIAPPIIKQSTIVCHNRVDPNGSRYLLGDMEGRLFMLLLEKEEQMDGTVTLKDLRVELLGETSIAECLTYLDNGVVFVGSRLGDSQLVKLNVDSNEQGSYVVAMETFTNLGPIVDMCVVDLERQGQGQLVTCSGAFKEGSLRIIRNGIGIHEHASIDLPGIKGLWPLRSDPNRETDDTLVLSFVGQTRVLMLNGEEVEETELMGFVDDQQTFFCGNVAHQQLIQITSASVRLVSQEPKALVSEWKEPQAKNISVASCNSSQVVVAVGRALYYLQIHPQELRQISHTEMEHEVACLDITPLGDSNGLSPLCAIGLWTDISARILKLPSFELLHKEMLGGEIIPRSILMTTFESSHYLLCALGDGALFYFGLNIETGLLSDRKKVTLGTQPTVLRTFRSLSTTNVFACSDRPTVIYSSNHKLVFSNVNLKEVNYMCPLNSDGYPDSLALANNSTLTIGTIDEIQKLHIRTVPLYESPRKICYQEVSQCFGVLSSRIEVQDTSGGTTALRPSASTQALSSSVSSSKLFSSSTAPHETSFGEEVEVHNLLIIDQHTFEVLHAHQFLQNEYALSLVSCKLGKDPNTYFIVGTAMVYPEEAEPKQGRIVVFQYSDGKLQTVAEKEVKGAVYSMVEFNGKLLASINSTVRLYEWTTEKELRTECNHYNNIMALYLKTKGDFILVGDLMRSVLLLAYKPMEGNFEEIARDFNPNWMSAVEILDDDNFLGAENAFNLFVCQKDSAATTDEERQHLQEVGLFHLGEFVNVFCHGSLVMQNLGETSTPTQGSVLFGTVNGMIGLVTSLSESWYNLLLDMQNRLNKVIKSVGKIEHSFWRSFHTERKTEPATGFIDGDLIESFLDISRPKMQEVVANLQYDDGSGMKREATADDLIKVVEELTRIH

Row | Structure (SMILES) | DC50 [nM] | BTK (C481S) Amax [%]
1 | Cc1ccc(C(=O)N2CCC3(CCN(CCc4ccc(-c5cc6c(-c7cc(F)cc(NC(=O)c8ccc(C(C)(C)O)cc8F)c7C)ncnc6[nH]5)cc4)CC3)CC2)cc1N1CCC(=O)NC1=O [Compound 5, N-(3-(6-(4-(2-(9-(3-(2,4-Dioxotetrahydropyrimidin-1(2H)-yl)-4-methylbenzoyl)-3,9-diazaspiro[5.5]undecan-3-yl)ethyl)phenyl)-7H-pyrrolo[2,3-d]pyrimidin-4-yl)-5-fluoro-2-methylphenyl)-2-fluoro-4-(2-hydroxypropan-2-yl)benzamide] | 0.57 | 2.5
2 | Cc1c(NC(=O)c2ccc(C(C)(C)O)cc2F)cc(F)cc1-c1ncnc2[nH]c(-c3ccc(CN4CCC5(CC4)CCN(C(=O)c4ccc(F)c(N6CCC(=O)NC6=O)c4)CC5)cc3)cc12 [Compound 14, N-(3-(6-(4-((9-(3-(2,4-Dioxotetrahydropyrimidin-1(2H)-yl)-4-fluorobenzoyl)-3,9-diazaspiro[5.5]undecan-3-yl)methyl)phenyl)-7H-pyrrolo[2.3-d]pyrimidin-4-yl)-5-fluoro-2-methylphenyl)-2-fluoro-4-(2-hydroxypropan-2-yl)benzamide] | 1.52 | 2.8
3 | COc1ccc(C(=O)N2CCN(C(=O)N3CCN(Cc4ccc(-c5cc6c(-c7cc(F)cc(NC(=O)c8ccc(C(C)(C)O)cc8F)c7C)ncnc6[nH]5)cc4)CC3)CC2)cc1N1CCC(=O)NC1=O [Compound 22, N-(3-(6-(4-((4-(4-(3-(2,4-Dioxotetrahydropyrimidin-1(2H)-yl)-4-methoxybenzoyl)piperazine-1-carbonyl)piperazin-1-yl)methyl)phenyl)-7H-pyrrolo[2,3-d]pyrimidin-4-yl)-5-fluoro-2-methylphenyl)-2-fluoro-4-(2-hydroxypropan-2-yl)benzamide] | 2.47 | 4.5
4 | Cc1ccc(C(=O)N2CCC3(CCN(Cc4ccc(-c5cc6c(-c7cc(F)cc(NC(=O)c8ccc(C(C)(C)O)cc8F)c7C)ncnc6[nH]5)cc4)CC3)CC2)cc1N1CCC(=O)NC1=O [Compound 27, N-(3-(6-(4-((9-(3-(2,4-Dioxotetrahydropyrimidin-1(2H)-yl)-4-methylbenzoyl)-3,9-diazaspiro[5.5]undecan-3-yl)methyl)phenyl)-7H-pyrrolo[2,3-d]pyrimidin-4-yl)-5-fluoro-2-methylphenyl)-2-fluoro-4-(2-hydroxypropan-2-yl)benzamide] | 0.81 | 2.8

More lines, in order of falling DC50, values ahead:

Row | DC50 [nM] | BTK (C481S) Amax [%] | Structure (SMILES)
5 | 2.08 | 2.2 | CCOc1ccc(C(=O)N2CCC3(CCN(Cc4ccc(-c5cc6c(-c7cc(F)cc(NC(=O)c8ccc(C(C)(C)O)cc8F)c7C)ncnc6[nH]5)cc4)CC3)CC2)cc1N1CCC(=O)NC1=O [Compound 4, N-(3-(6-(4-((9-(3-(2,4-Dioxotetrahydropyrimidin-1(2H)-yl)-4-ethoxybenzoyl)-3,9-diazaspiro[5.5]undecan-3-yl)methyl)phenyl)-7H-pyrrolo[2,3-d]pyrimidin-4-yl)-5-fluoro-2-methylphenyl)-2-fluoro-4-(2-hydroxypropan-2-yl)benzamide]
6 | 2.08 | 2.7 | COc1ccc(C(=O)N2CCC(OC3CCN(Cc4ccc(-c5cc6c(-c7cc(F)cc(NC(=O)c8ccc(C(C)(C)O)cc8F)c7C)ncnc6[nH]5)cc4)CC3)CC2)cc1N1CCC(=O)NC1=O [Compound 8, N-(3-(6-(4-((4-((1-(3-(2,4-dioxotetrahydropyrimidin-1(2H)-yl)-4-methoxybenzoyl)piperidin-4-yl)oxyl)piperidin-1-yl)methyl)phenyl)-7H-pyrrolo[2,3-d]pyrimidin-4-yl)-5-fluoro-2-methylphenyl)-2-fluoro-4-(2-hydroxypropan-2-yl)benzamide]
7 | 1.92 | 4.5 | COc1ccc(C(=O)N2CCC3(CCN(Cc4ccc(-c5cc6c(-c7cc(F)cc(NC(=O)c8ccc(C(C)(C)O)cc8F)c7C)ncnc6[nH]5)cc4)CC3)CC2)cc1N1CCC(=O)NC1=O [Compound 9, N-(3-(6-(4-((9-(3-(2,4-Dioxotetrahydropyrimidin-1(2H)-yl)-4-methoxybenzoyl)-3,9-diazaspiro[5.5]undecan-3-yl)methyl)phenyl)-7H-pyrrolo[2.3-d]pyrimidin-4-yl)-5-fluoro-2-methylphenyl)-2-fluoro-4-(2-hydroxypropan-2-yl)benzamide]
8 | 1.58 | 2.9 | Cc1c(NC(=O)c2ccc(C(C)(C)O)cc2F)cc(F)cc1-c1ncnc2[nH]c(-c3ccc(CCN4CCC5(CC4)CCN(C(=O)c4cccc(N6CCC(=O)NC6=O)c4)CC5)cc3)cc12 [Compound 12, N-(3-(6-(4-(2-(9-(3-(2,4-Dioxotetrahydropyrimidin-1(2H)-yl)benzoyl)-3,9-diazaspiro[5,5]undecan-3-yl)ethyl)phenyl)-7H-pyrrolo[2,3-d]pyrimidin-4-yl)-5-fluoro-2-methylphenyl)-2-fluoro-4-(2-hydroxypropan-2-yl)benzamide]
9 | 0.72 | 2.1 | Cc1c(NC(=O)c2ccc(C(C)(C)O)cc2F)cc(F)cc1-c1ncnc2[nH]c(-c3ccc(COC4CCN(CCC5CCN(C(=O)c6ccc(F)c(N7CCC(=O)NC7=O)c6)CC5)CC4)cc3)cc12 [Compound 6, N-(3-(6-(4-(((1-(2(1-(3-(2,4-dioxotetrahydropyrimidin-1(2H)-yl)-4-fluorobenzoyl)piperidin-4-yl)ethyl)piperidin-4-yl)oxyl)methyl)phenyl)-7H-pyrrolo[2,3-d]pyrimidin-4-yl)-5-fluoro-2-methylphenyl)-2-fluoro-4-(2-hydroxypropan-2-yl)benzamide]
10 | 0.68 | 2.4 | COc1ccc(C(=O)N2CCC3(CC2)CCN(C(C)(C)Cc2ccc(-c4cc5c(-c6cc(F)cc(NC(=O)c7ccc(C(C)(C)O)cc7F)c6C)ncnc5[nH]4)cc2)CC3)cc1N1CCC(=O)NC1=O [Compound 20, N-(3-(6-(4-(2-(9-(3-(2,4-Dioxotetrahydropyrimidin-1(2H)-yl)-4-methoxybenzoyl)-3,9-diazaspiro[5.5]undecan-3-yl)-2-methylpropyl)phenyl)-7H-pyrrolo[2,3-d]pyrimidin-4-yl)-5-fluoro-2-methylphenyl)-2-fluoro-4-(2-hydroxypropan-2-yl)benzamide]
11 | 0.62 | 2.7 | COc1ccc(C(=O)N2CCC(CN3CCC(Oc4ccc(-c5cc6c(-c7cc(F)cc(NC(=O)c8ccc(C(C)(C)O)cc8F)c7C)ncnc6[nH]5)cc4)CC3)CC2)cc1N1CCC(=O)NC1=O [Compound 19, N-(3-(6-(4-((1-((1-(3-(2,4-Dioxotetrahydropyrimidin-1(2H)-yl)-4-methoxybenzoyl)piperidin-4-yl)methyl)piperidin-4-yl)oxyl)phenyl)-7H-pyrrolo[2,3-d]pyrimidin-4-yl)-5-fluoro-2-methylphenyl)-2-fluoro-4-(2-hydroxypropan-2-yl)benzamide]
